# Data as given in US7718680B2 (priority 2004, dated 2010).
# Like-named read-outs stand apart in the source and are kept apart here.
# How the values were obtained:
# [1] = tested on: macrophages; format: cell-based
# [2] = target: T1, Lethal Factor (LF) protease of anthrax toxin (Bacillus anthracis, UniProt P15917); assay: biochemical
# [3] = target: T1, Lethal Factor (LF) protease of anthrax toxin; assay: biochemical; remark: listed apart in the source
# T1 sequence (P15917 34-809 limits assumed): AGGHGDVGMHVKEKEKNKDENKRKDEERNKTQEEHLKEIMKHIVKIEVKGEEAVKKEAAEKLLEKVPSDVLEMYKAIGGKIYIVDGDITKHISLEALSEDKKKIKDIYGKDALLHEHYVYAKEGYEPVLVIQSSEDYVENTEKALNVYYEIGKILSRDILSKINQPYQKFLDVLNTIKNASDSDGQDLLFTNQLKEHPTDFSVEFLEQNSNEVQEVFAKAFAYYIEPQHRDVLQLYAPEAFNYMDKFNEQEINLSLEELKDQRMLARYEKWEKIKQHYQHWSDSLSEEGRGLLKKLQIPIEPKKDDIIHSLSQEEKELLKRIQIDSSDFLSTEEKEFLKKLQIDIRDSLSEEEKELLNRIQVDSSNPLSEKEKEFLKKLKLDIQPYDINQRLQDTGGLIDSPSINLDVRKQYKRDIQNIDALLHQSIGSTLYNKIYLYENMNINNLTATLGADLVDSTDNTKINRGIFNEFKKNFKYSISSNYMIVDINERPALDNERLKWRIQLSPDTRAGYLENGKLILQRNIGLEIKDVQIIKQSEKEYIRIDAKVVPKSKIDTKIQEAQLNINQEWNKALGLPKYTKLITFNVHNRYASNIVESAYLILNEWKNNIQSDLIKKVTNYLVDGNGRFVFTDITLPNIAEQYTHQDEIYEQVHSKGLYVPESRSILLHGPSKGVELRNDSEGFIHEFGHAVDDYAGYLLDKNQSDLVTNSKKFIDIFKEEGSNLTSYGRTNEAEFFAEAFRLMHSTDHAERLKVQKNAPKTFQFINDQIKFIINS
smiles,measurement,setting,value
O=C(O)CN1C(=O)/C(=C/c2ccc(-c3ccc(Cl)c(Cl)c3)o2)SC1=S [BI-11B2],potency relative to GM6001,[1],100 fold
same,pIC50 Obs,[2],6.58
same,IC50,[2]; read-out: IC50,0.265 µM
O=C1/C(=C/c2ccc(-c3ccccc3[N+](=O)[O-])o2)SC(=S)N1CCc1ccccc1 [Compound 6],IC50,[2]; read-out: IC50,31.9 µM
O=C1NC(=S)S/C1=C\c1ccc(-c2ccc(Br)c(Cl)c2)o1 [Compound 14],IC50,[2]; read-out: IC50,7 µM
same,inhibition at 10 µM,[2]; read-out: LF inhibition,> 70%
O=C(O)CN1C(=O)/C(=C/c2ccc(-c3cc(C(F)(F)F)ccc3Cl)o2)SC1=S [BI-11D9],IC50,[2],5.9 µM
CN1C(NC(=O)O)=NC(=O)/C1=C\c1ccc(-c2ccc(Cl)cc2)o1 [BI-11C11],IC50,[2],> 100 µM
same,pIC50 Obs,[2],>4
O=C(O)CN1C(=O)/C(=C/c2ccc(-c3cc(C(F)(F)F)ccc3Cl)o2)SC1=S [BI-11B3],potency relative to GM6001,[1],100 fold
same,LF activity / cleavage of fluorinated peptide seen by 19F NMR,[3],potent LF inhibition
same,Ki,[2],0.032 µM
same,pIC50 Obs,[2],6.71
same,IC50,[2]; read-out: IC50,0.195 µM
O=C(O)CN1C(=O)/C(=C/c2ccc(-c3ccc(Cl)cc3)o2)SC1=S [BI-11A9],pIC50 Obs,[2],6.05
same,IC50,[2]; read-out: IC50,0.9 µM
CN1C(=N)NC(=O)/C1=C\c1ccc(-c2ccc(Cl)cc2)o1 [BI-11C5],pIC50 Obs,[2],3.70
same,IC50,[2]; read-out: IC50,200 µM
O=C1NC(=S)NC(=O)C1=Cc1ccc(-c2ccccc2)s1 [BI-11C4],pIC50 Obs,[2],5.92
same,IC50,[2]; read-out: IC50,1.2 µM
O=C(O)CN1C(=O)S/C(=C\c2ccc(-c3ccc(Cl)c(Cl)c3)o2)C1=O [BI-11D8],pIC50 Obs,[2],5.25
same,IC50,[2]; read-out: IC50,5.6 µM
O=C1NC(=S)NC(=O)C1=Cc1ccc(-c2ccc(Cl)c(Cl)c2)o1 [BI-11C3],pIC50 Obs,[2],5.68
same,IC50,[2]; read-out: IC50,2.1 µM
O=C(O)CN1C(=O)/C(=C/c2ncc(-c3ccc(Cl)cc3)s2)SC1=S [BI-11D5],pIC50 Obs,[2],5.00
same,IC50,[2]; read-out: IC50,10 µM
COc1ccc(-c2cnc(/C=C3\SC(=S)N(CC(=O)O)C3=O)s2)cc1OC [BI-11D6],pIC50 Obs,[2],5.30
same,IC50,[2]; read-out: IC50,5 µM
O=C(O)CN1C(=O)/C(=C/c2ccc(-c3cccs3)s2)SC1=S [BI-11D3],pIC50 Obs,[2],5.64
C=CCN1C(=O)/C(=C/c2ccc(-c3ccc(F)cc3)o2)SC1=S [Compound 3],IC50,[2]; read-out: IC50,50 µM
COc1ccc(-c2ccc(C=C3C(=O)NC(=S)NC3=O)o2)cc1Cl [BI-11C1],pIC50 Obs,[2],5.52
same,IC50,[2]; read-out: IC50,3 µM
O=C(O)CN1C(=O)/C(=C/c2ccc(-c3ccccc3)s2)SC1=S [BI-11B10],pIC50 Obs,[2],6.13
same,IC50,[2]; read-out: IC50,0.74 µM
O=C(O)CN1C(=O)/C(=C/c2ccco2)SC1=S [BI-9B9b],inhibition at 140 µM,[3]; read-out: LF inhibition,50%
same,pIC50 Obs,[2],3.85
same,IC50,[2]; read-out: IC50,140 µM
same,inhibition at 140 µM,[2]; read-out: LF inhibition,50%
O=C(O)c1ccc(-c2ccc(/C=C3\SC(=S)N(Cc4cccnc4)C3=O)o2)cc1Cl [Compound 11],IC50,[2]; read-out: IC50,9.9 µM
CN1C(=N)NC(=O)/C1=C\c1ccc(-c2cc(C(F)(F)F)ccc2Cl)o1 [BI-11B11],pIC50 Obs,[2],4
O=C(O)CN1C(=O)/C(=C/c2ncc(-c3ccc(F)cc3)s2)SC1=S [BI-11E3],pIC50 Obs,[2],4.65
same,IC50,[2]; read-out: IC50,22.4 µM
O=C(O)CN1C(=O)/C(=C/c2ccc(-c3ccc(Br)cc3)o2)SC1=S [BI-11A10],pIC50 Obs,[2],6.07
same,IC50,[2]; read-out: IC50,0.85 µM
O=C(O)CN1C(=O)S/C(=C\c2ccc(/C=C3\SC(=S)N(CC(=O)O)C3=O)s2)C1=O [BI-11E2],IC50,[2],1.58 µM
O=C1NC(=S)S/C1=C\c1ccc(-c2ccc(Cl)c(Cl)c2)o1 [Compound 13],IC50,[2]; read-out: IC50,7.4 µM
same,inhibition at 10 µM,[2]; read-out: LF inhibition,> 70%
NS(=O)(=O)c1ccc(-c2ccc(/C=C3\SC(=S)N(CC(=O)O)C3=O)o2)cc1 [Compound 12],IC50,[2]; read-out: IC50,9.1 µM
O=C(O)CCCN1C(=O)/C(=C/c2ccc(-c3ccc(Br)cc3)o2)SC1=S [Compound 21],IC50,[2]; read-out: IC50,2.3 µM
O=C(O)CCN1C(=O)/C(=C/c2ccc(-c3ccc(Cl)cc3)o2)SC1=S [BI-MFM3],LF activity / cleavage of fluorinated peptide seen by 19F NMR,[3],Only the ^19F NMR signal relative to uncleaved peptide appears
same,inhibitory activity relative to GM6001,[3],about twice as strong as GM6001
same,Ki,[2],0.8 ± 0.3 µM
same,effect on the Vmax,[2],no effect
same,pIC50 Obs,[2],5.77
same,type of inhibition,[2],competitive
same,IC50,[2]; read-out: IC50,1.7 µM
same,inhibition at 10 µM,[2]; read-out: LF inhibition,> 70%
C=CCN1C(=O)/C(=C/c2ccc(-c3ccc(C(=O)O)c(Cl)c3)o2)SC1=S [Compound 20],IC50,[2]; read-out: IC50,2.7 µM
O=C(O)CN1C(=O)/C(=C/c2ccc(-c3ccccc3)o2)SC1=S [BI-11C12],pIC50 Obs,[2],4.78
same,IC50,[2]; read-out: IC50,16.6 µM
O=C(O)CN1C(=O)/C(=C/c2ccc(-c3ccc(I)cc3)o2)SC1=S [Compound 16],IC50,[2]; read-out: IC50,5.5 µM
same,inhibition at 10 µM,[2]; read-out: LF inhibition,> 70%
O=C(O)CN1C(=O)/C(=C/c2nccs2)SC1=S [BI-11D2],pIC50 Obs,[2],4.14
same,IC50,[2]; read-out: IC50,72.4 µM
O=C(O)CN1C(=O)/C(=C/c2ccc(-c3ccc(Cl)cc3[N+](=O)[O-])o2)SC1=S [BI-11A11],pIC50 Obs,[2],6.30
same,IC50,[2]; read-out: IC50,0.5 µM
O=C(O)CN1C(=O)/C(=C/c2ncc(-c3ccc(Br)cc3)s2)SC1=S [BI-11E4],pIC50 Obs,[2],5.36
same,IC50,[2]; read-out: IC50,4.4 µM
O=C1/C(=C/c2ccc(-c3ccc(Cl)cc3)o2)SC(=S)N1Cc1ccco1 [Compound 2],IC50,[2]; read-out: IC50,150 µM
O=C(O)CN1C(=O)/C(=C/c2ccc(-c3ccc(Cl)cc3)s2)SC1=S [BI-11D10],pIC50 Obs,[2],5.49
same,IC50,[2]; read-out: IC50,3.2 µM
"CNC(=O)[C@H](Cc1c[nH]c2ccccc12)NC(=O)[C@@H](CC(=O)NO)CC(C)C [GM6001, reference compound]",LF activity / cleavage of fluorinated peptide seen by 19F NMR,[3],reduced by approximately half
O=C(O)CN1C(=O)/C(=C/c2cccs2)SC1=S [BI-11D1],pIC50 Obs,[2],4.10
same,IC50,[2]; read-out: IC50,79.4 µM
O=C1NC(=S)NC(=O)C1=Cc1ccc(-c2cc(C(F)(F)F)ccc2Cl)o1 [BI-11C2],pIC50 Obs,[2],5.89
same,IC50,[2]; read-out: IC50,1.3 µM
O=C1NC(=S)NC(=O)C1=Cc1ccc(-c2ccc(Cl)cc2)o1 [BI-11B12],pIC50 Obs,[2],5.36
same,IC50,[2]; read-out: IC50,4.4 µM
